Reference: publication PMC9599717, “The Multicellular Effects of VDAC1 N-Terminal-Derived Peptide” (Biomolecules, 2022)

Tested on: U-87MG cells
Test: Acridine orange (AO) staining of acidic vesicles
Format: cell-based, human
Details: 6 h, serum-free DMEM
Method: Figure 7 D-Δ(1-18)-N-Ter-Antp peptide induced vesicle/particle formation. U-87MG cells were treated for 6 h with the indicated concentrations of D-Δ(1-18)N-Ter-Antp peptide in serum-free DMEM. (A) Cells were visualized for vesicle formation under a light microscope. Red circles indicate vesicles/particles. The images were captured at 40× and two folds enlargement is shown. (B,C) Cells were stained with acridine orange (AO). Arrows indicate red/orange stained endosomal/lysosomal vesicles (B). Scale bars were 20 μm. Vesicles/particles are indicated by violet arrows. Quantification of AO staining intensity (C). (D) Cells were stained with anti-vinculin antibodies, followed by secondary anti-mouse-cy3 antibodies. […] (F) U-87MG cells were treated with various concentrations of D-Δ(1-18)N-Ter-Antp peptide for the indicated time and subjected to Oil Red O staining and quantification as described in the Supplementary Data. […]
color was read in a spectrophotometer at 680 nm. […]
U-87MG cells were treated with D-Δ(1-18)N-Ter-Antp peptide in serum-free DMEM media for 6 h at 37℃, incubated with acridine orange (1 μg/ml) for 15 min, visualized by fluorescence microscopy (Olympus LX2 - KSP, Tokyo, Japan), and images were captured with a CCD camera. About 200 cells were counted for each […]

19-FTKGYGFGL-26- RQIKIWFQNRRMKWKK [D-Δ(1-18)N-Ter-Antp]
Increase in orange color (AO accumulation in acidic vesicles): more than 3 fold
